The values below come from patent US20110045101A1, “FUNGICIDAL SUBSTITUTED AZOLES” (E.I. Du Pont De Nemours and Company, priority 2009, published 2011).

Holding throughout (type): in vivo
Common to all, as to details: 200 ppm; 100 = 100% disease control, 0 = no control

For one assay, the system named is Botrytis cinerea. Nature of the assay: Test C: tomato Botrytis on tomato seedlings, sprayed the day before inoculation, visual disease rating. In a few lines:
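Tomato seedlings sprayed to run-off with compound suspended in acetone/water with 250 ppm Trem 014 surfactant, at 200 ppm (≈500 g/ha) or 40 ppm where marked, one day before Botrytis cinerea inoculation. Disease rated visually.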

Another assay deals with Septoria tritici. Description: Test G: wheat leaf blotch on wheat seedlings, sprayed the day before inoculation, visual disease rating. In a few lines: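 Wheat seedlings were sprayed to run-off with test suspension (acetone/water plus surfactant), generally 200 ppm (≈500 g/ha), or 40 ppm where marked. Septoria tritici spores were inoculated the next day; plants were held 48 h at 24°C in saturated atmosphere, then 19 days at 20°C before visual disease rating.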

Assay [1] deals with Puccinia recondita f. sp. tritici. Nature of the assay: Test I: wheat leaf rust on wheat seedlings, sprayed the day before inoculation, visual disease rating. In a few lines:
(§1)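 Compounds were dissolved in acetone (3% of final volume), then suspended in 50/50 acetone/water with 250 ppm Trem 014 surfactant and sprayed to run-off on test plants. A 200 ppm suspension equals 500 g/ha. Ratings are at 200 ppm unless flagged as 40 ppm.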

Assay [2] concerns Erysiphe graminis f. sp. tritici. Description: Test J: wheat powdery mildew on wheat seedlings, sprayed the day before inoculation, visual disease rating. The procedure, abridged:
as §1

The next assay concerns Alternaria solani. Description: Test D: tomato early blight, sprayed the day before inoculation, visual disease rating. The procedure, abridged: as §1
The test system of the next assay is Septoria nodorum. Nature of the assay: Test F: wheat glume blotch on wheat seedlings, sprayed the day before inoculation, visual disease rating. The procedure, abridged: as §1

Regarding `COc1cc(F)c(-c2c(C)ncn2-c2ccc(Cl)nc2)c(F)c1` [compound 254], in the assay on Botrytis cinerea, the “Test C disease control rating” value is 100%. Further, in the assay with Septoria tritici, the “Test G disease control rating” value is 95%. Also, the “Test I disease control rating” value in assay [1] is on record as 99%. In assay [2], the “Test J disease control rating” value came to 98%. Also, the “Test D disease control rating” value in the assay with Alternaria solani amounted to 100%. Moreover, in the assay with Septoria nodorum, the “Test F disease control rating” value is 0%.
As for `Cc1ncn(-c2ccc(Cl)c(F)c2)c1-c1c(Cl)cncc1Cl` [compound 255], the “Test C disease control rating” value in the assay on Botrytis cinerea came out at 99%. For the same compound, the “Test G disease control rating” value with Septoria tritici is on record as 95%. Besides, the “Test I disease control rating” value in assay [1] is 86%. The “Test J disease control rating” value in assay [2] is on record as 91%. Further, the “Test D disease control rating” value in the assay on Alternaria solani amounted to 0%. Besides, in the assay with Septoria nodorum, the “Test F disease control rating” value was determined as 0%.
Consider `COc1cc(F)c(-c2c(Cl)nc(Cl)n2-c2cccc(F)c2)c(F)c1` [compound 257], for which the “Test C disease control rating” value with Botrytis cinerea worked out at 100%. Besides, in the assay on Septoria tritici, the “Test G disease control rating” value stood at 95%. The “Test I disease control rating” value in assay [1] turned out to be 100%. Moreover, the “Test J disease control rating” value in assay [2] amounted to 100%. Moreover, the “Test D disease control rating” value with Alternaria solani worked out at 100%. In the assay on Septoria nodorum, the “Test F disease control rating” value is 99%.
For `Cc1nc(Cl)c(Cc2c(F)cccc2F)n1-c1ccc(Cl)cc1` [compound 258], the “Test C disease control rating” value in the assay on Botrytis cinerea is on record as 99%. In addition, in the assay with Septoria tritici, the “Test G disease control rating” value amounted to 87%. Moreover, the “Test I disease control rating” value in assay [1] is listed as 97%. Moreover, the “Test J disease control rating” value in assay [2] is 78%. The “Test D disease control rating” value in the assay with Alternaria solani was 0%. Moreover, the “Test F disease control rating” value in the assay with Septoria nodorum was found to be 42%.
With `Fc1cc(-n2c(Cl)nc(CCl)c2-c2ccccc2F)ccc1Cl` [compound 259], the “Test C disease control rating” value with Botrytis cinerea is given as 99%. Also, the “Test G disease control rating” value in the assay with Septoria tritici is listed as 63%. Moreover, the “Test I disease control rating” value in assay [1] was 82%. In addition, the “Test J disease control rating” value in assay [2] amounted to 93%. Also, the “Test D disease control rating” value with Alternaria solani amounted to 16%. The “Test F disease control rating” value with Septoria nodorum is given as 0%.
Regarding `Cc1nc(Cl)n(-c2ccc(Cl)c(F)c2)c1-c1ccccc1F` [compound 260], the “Test C disease control rating” value with Botrytis cinerea was found to be 100%. Also, in the assay on Septoria tritici, the “Test G disease control rating” value turned out to be 92%. In assay [1], the “Test I disease control rating” value is 94%. For the same compound, the “Test J disease control rating” value in assay [2] was 99%. The “Test D disease control rating” value with Alternaria solani is given as 95%. Moreover, the “Test F disease control rating” value in the assay with Septoria nodorum stood at 0%.
`COc1cc(F)c(-c2c(C)nc(Cl)n2-c2ccc(Cl)c(F)c2)c(F)c1` [compound 261]: in the assay with Botrytis cinerea, the “Test C disease control rating” value turned out to be 99%. The “Test G disease control rating” value in the assay with Septoria tritici stood at 95%. Further, in assay [1], the “Test I disease control rating” value was found to be 100%. In addition, the “Test J disease control rating” value in assay [2] is 100%. The “Test D disease control rating” value with Alternaria solani amounted to 100%. For the same compound, the “Test F disease control rating” value in the assay on Septoria nodorum came to 100%.
As for `Cc1nc(Cl)n(-c2ccc(Cl)c(F)c2)c1-c1c(Cl)cncc1Cl` [compound 262], in the assay with Botrytis cinerea, the “Test C disease control rating” value is reported as 99%. Besides, the “Test G disease control rating” value in the assay with Septoria tritici turned out to be 96%. Further, the “Test I disease control rating” value in assay [1] amounted to 100%. The “Test J disease control rating” value in assay [2] turned out to be 100%. Besides, the “Test D disease control rating” value with Alternaria solani amounted to 99%. In addition, the “Test F disease control rating” value in the assay on Septoria nodorum amounted to 69%.
For `COc1cc(F)c(-c2c(C)nc(Cl)n2-c2ccc(Cl)nc2)c(F)c1` [compound 263], the “Test C disease control rating” value with Botrytis cinerea is given as 99%. Further, in the assay with Septoria tritici, the “Test G disease control rating” value is recorded as 95%. For the same compound, the “Test I disease control rating” value in assay [1] is reported as 100%. Also, the “Test J disease control rating” value in assay [2] is on record as 100%. The “Test D disease control rating” value in the assay with Alternaria solani was 100%. For the same compound, in the assay on Septoria nodorum, the “Test F disease control rating” value came out at 100%.
`Cc1nc(Cl)n(-c2ccc(Cl)c(F)c2)c1-c1ccccn1` [compound 264]: the “Test C disease control rating” value in the assay with Botrytis cinerea amounted to 99%. For the same compound, the “Test G disease control rating” value in the assay on Septoria tritici amounted to 95%. The “Test I disease control rating” value in assay [1] is 98%. Also, the “Test J disease control rating” value in assay [2] is on record as 99%. The “Test D disease control rating” value with Alternaria solani is 88%. In addition, the “Test F disease control rating” value in the assay with Septoria nodorum is 0%.
